Reference: publication PMC8355244, “A fragment-based approach identifies an allosteric pocket that impacts malate dehydrogenase activity” (Communications Biology, 2021)
Read-outs that look alike come from different tables or passages of the source.

Target: T1, WT PfMDH (Plasmodium falciparum, UniProt Q6VVP7)
T1 construct: The full-length WT PfMDH gene was cloned into pETM-13; made in house; host or cells: E. coli Rosetta 2 (DE3) pLysS
Assay: Activity screening of 4DT / 4-phenylthiazol-2-amine derivatives (oxidation of malate, absorbance at 340 nm)
Assay type: biochemical
Conditions: for inhibition at 500 µM: Dunnett's multiple comparisons test, read-out: Mean Diff. (positive control vs. compound); for Slope repl1 / Slope repl2: linear regression slope of absorbance 340 nm vs time; for Slope normalized repl1: slope relative to control = 1, replicate 1; for Slope normalized repl2: slope relative to control = 1, replicate 2
Procedure: The oxidation of malate to oxaloacetate was assayed spectrophotometrically in flat-bottomed Corning 96-well microplates in a total volume of 250.0 µl in 50 mM glycine buffer pH 10.2[24] with an additional 400 mM NaCl for protein stability. The increase of absorbance at 340 nm was recorded in kinetic mode using a Tecan Spark multimode microplate reader at 298 K. A mastermix of 50 mM NAD+ and 44 μM PfMDH was used for both the screening and kinetics experiments. The final concentration of protein and cofactor were […], respectively. Positive control groups were set (absence of compound) in the same plate as the treated group. The absorbance from the background noise was subtracted from the data and then a linear regression model was employed in order to get the line slope from the first 5 min of the reaction. The percentage of enzymatic activity has been calculated as described by Eq. (1)1 enzymeactivity(%)=slopetreated/slopepositivecontrol*100
1.3 µL of derivatives of 4-phenylthiazol-2-amine in 100% DMSO were mixed with 237.7 µL of a mastermix of WT PfMDH previously incubated with NAD+. The final compound concentration used in this screening was 500 µM in the presence of 0.5% (v/v) DMSO. The microplate was sealed with silver foil for 1-h incubation at 25–35 °C. Finally, reactions in both the samples and control wells were started upon the addition of 13.0 µL of 5 mM malate). At the end of the experiments, the reaction of the plate was spectrophotometrically assayed at 600 nm in order to identify turbidity due to the low solubility of the compound. All measurements were performed in duplicate.

[1] = 500 µM compound, Dunnett test details, positive control mean 100, n 2, read-out: Mean 2 (mean % enzymatic activity of treated group)
[2] = 500 µM compound, control 100%, replicate 1, read-out: % enzymatic activity repl1
[3] = 500 µM compound, control 100%, replicate 2, read-out: % enzymatic activity repl2

T1 sequence (Q6VVP7 entry or part of it): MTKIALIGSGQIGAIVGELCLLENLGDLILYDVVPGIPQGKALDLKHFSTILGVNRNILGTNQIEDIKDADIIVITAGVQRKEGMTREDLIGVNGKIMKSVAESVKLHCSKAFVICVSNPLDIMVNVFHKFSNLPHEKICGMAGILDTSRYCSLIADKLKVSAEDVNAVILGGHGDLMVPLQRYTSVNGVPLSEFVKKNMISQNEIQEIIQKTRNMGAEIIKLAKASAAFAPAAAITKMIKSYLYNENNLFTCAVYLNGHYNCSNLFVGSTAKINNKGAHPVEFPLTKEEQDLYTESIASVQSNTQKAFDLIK

**Q.** `Nc1cc(-c2ccccc2)[nH]n1` [5b] was tested. Which remaining activity at 500 µM [1] did it give?
**A.** Its remaining activity at 500 µM is 53%.

**Q.** And the inhibition at 500 µM (500 µM compound)?
**A.** Its inhibition at 500 µM is 47.5%.

**Q.** And the remaining activity at 500 µM [2]?
**A.** Its remaining activity at 500 µM is 63%.

**Q.** And the remaining activity at 500 µM [3]?
**A.** The remaining activity at 500 µM was 42%.

**Q.** What about the “Slope repl1” value (500 µM compound, replicate 1) of the same compound?
**A.** Its value is 0.02092.

**Q.** What about the “Slope repl2” value (500 µM compound, replicate 2) of the same compound?
**A.** Its value is 0.01483.

**Q.** And the “Slope normalized repl1” value (500 µM compound)?
**A.** The value was 0.628.

**Q.** What about the “Slope normalized repl2” value (500 µM compound) of the same compound?
**A.** Its value is 0.4232.

**Q.** And the remaining activity at 500 µM (read-out: enzyme activity)?
**A.** Its remaining activity at 500 µM is 53%.

**Q.** What does the source list for `Cc1c(CO)cnn1-c1ccccc1` [compound 6b]?
**A.** enzyme activity (500 µM compound, 0.5% DMSO, vs control, mean of n = 2): no statistical difference with the control; remaining activity at 500 µM [1]: 80%; inhibition at 500 µM (500 µM compound): 20%; remaining activity at 500 µM [2]: 80%; remaining activity at 500 µM [3]: 80%; Slope repl1 (500 µM compound, replicate 1): 0.02662; Slope repl2 (500 µM compound, replicate 2): 0.02788; Slope normalized repl1 (500 µM compound): 0.7992; Slope normalized repl2 (500 µM compound): 0.7957

**Q.** For `Nc1nc(-c2ccc(F)cc2)cs1` [compound 9a], which remaining activity at 500 µM [1] is on record?
**A.** The remaining activity at 500 µM was 51%.

**Q.** What about the inhibition at 500 µM (500 µM compound) of the same compound?
**A.** The inhibition at 500 µM was 49%.

**Q.** And the remaining activity at 500 µM [2]?
**A.** The remaining activity at 500 µM was 57%.

**Q.** What about the remaining activity at 500 µM [3] of the same compound?
**A.** Its remaining activity at 500 µM is 45%.

**Q.** What about the “Slope repl1” value (500 µM compound, replicate 1) of the same compound?
**A.** Its value is 0.01901.

**Q.** What about the “Slope repl2” value (500 µM compound, replicate 2) of the same compound?
**A.** The value was 0.01582.

**Q.** What about the “Slope normalized repl1” value (500 µM compound) of the same compound?
**A.** The value was 0.5707.

**Q.** And the “Slope normalized repl2” value (500 µM compound)?
**A.** The value was 0.4515.

**Q.** And the remaining activity at 500 µM (read-out: enzyme activity)?
**A.** Its remaining activity at 500 µM is 51%.

**Q.** Which results are given for `Nc1nc(-c2ccc(Cl)c(Cl)c2)cs1` [7a]?
**A.** remaining activity at 500 µM [1]: 24%; inhibition at 500 µM (500 µM compound): 76.5%; remaining activity at 500 µM [2]: 26%; remaining activity at 500 µM [3]: 21%; Slope repl1 (500 µM compound, replicate 1): 0.008711; Slope repl2 (500 µM compound, replicate 2): 0.007289; Slope normalized repl1 (500 µM compound): 0.2615; Slope normalized repl2 (500 µM compound): 0.208; remaining activity at 500 µM (read-out: enzyme activity): 23%
